In PubChem BioAssay (NCI) one finds GI50 and TGI data, which are given here for eight molecules.

Several values for one entry are separate records, joined by “and”; a condition that tells them apart may be missing. Identical values can stand only once.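 The compound was tested at five concentrations on cells cultured in 96-well plates, with a 48-hour exposure period. GI50 marks 50% less growth. TGI: concentration producing complete growth inhibition.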

Among the test systems are UO-31 renal; COLO 205 colon; 786-0 renal; NCI/ADR-RES ovarian; U251 CNS; LOX IMVI melanoma; UACC-62 melanoma; HCT-116 colon; OVCAR-8 ovarian; SK-MEL-28 melanoma.
Common to all, as to test: NCI-60 cell line screen, 48 h

As to `Cc1nn(C)c2cc(N(C)c3ccnc(Nc4cccc(S(N)(=O)=O)c4)n3)ccc12`, the GI50 is 3.44 µM with UO-31 renal; > 17.3 µM in the assay on COLO 205 colon; 9.36 µM in the assay on 786-0 renal; 7.85 µM with NCI/ADR-RES ovarian; 10.8 µM in the assay with U251 CNS; 7.14 µM with LOX IMVI melanoma. For the same molecule, the GI50 with UACC-62 melanoma is 5.94 µM; with HCT-116 colon, 7.43 µM; with OVCAR-8 ovarian, 7.15 µM; in the assay with SK-MEL-28 melanoma it was 9 µM. The TGI is > 18.1 µM in the assay on UO-31 renal; > 25 µM in the assay with COLO 205 colon; > 25 µM in the assay on 786-0 renal; > 25 µM in the assay with NCI/ADR-RES ovarian; > 25 µM in the assay on U251 CNS; > 25 µM with LOX IMVI melanoma. Further, the TGI with UACC-62 melanoma is > 22.7 µM; in the assay on HCT-116 colon, > 25 µM; in the assay with OVCAR-8 ovarian, > 25 µM; in the assay with SK-MEL-28 melanoma, > 25 µM.

Take `Oc1c(CN2CCN(c3ccccc3F)CC2)cc(Br)c2cccnc12`: the GI50 in the assay with UO-31 renal is 0.259 µM; with COLO 205 colon, 16.1 µM; in the assay on 786-0 renal, 2.42 µM; in the assay on NCI/ADR-RES ovarian it was 0.224 µM; in the assay on U251 CNS, 0.529 µM; in the assay on LOX IMVI melanoma, 0.676 µM. Also, the GI50 in the assay on UACC-62 melanoma was 0.631 µM; in the assay on HCT-116 colon it was 0.546 µM; in the assay with OVCAR-8 ovarian, 0.607 µM; in the assay on SK-MEL-28 melanoma, 2.49 µM. Besides, the TGI with UO-31 renal was found to be 3.58 µM; with COLO 205 colon it was 55 µM; in the assay with 786-0 renal it was 12.6 µM; in the assay with NCI/ADR-RES ovarian, 21.9 µM; in the assay with U251 CNS it was 11.1 µM; in the assay on LOX IMVI melanoma, 10.3 µM. Also, the TGI was 4.09 µM in the assay on UACC-62 melanoma, > 40.7 µM with HCT-116 colon, 14.5 µM in the assay with OVCAR-8 ovarian and > 100 µM in the assay on SK-MEL-28 melanoma.

For `Nc1ccc(-c2ccc(-c3nc4cc(Cl)c(Cl)cc4[nH]3)cc2)cc1`, the GI50 in the assay with UO-31 renal was 0.674 µM; in the assay with COLO 205 colon, 0.0953 µM; with 786-0 renal, 2.05 µM; with NCI/ADR-RES ovarian, 3.6 µM; with U251 CNS, 12 µM; in the assay with LOX IMVI melanoma, 0.0361 µM. In addition, the GI50 is < 0.0215 µM in the assay with UACC-62 melanoma, 0.503 µM in the assay on HCT-116 colon, 14.5 µM with OVCAR-8 ovarian and 13.4 µM in the assay with SK-MEL-28 melanoma. The TGI with UO-31 renal is 13.3 µM; in the assay on COLO 205 colon, > 37.7 µM; in the assay on 786-0 renal, 18.9 µM; in the assay on NCI/ADR-RES ovarian it was > 79.2 µM; in the assay on U251 CNS it was > 53.1 µM; in the assay with LOX IMVI melanoma, > 25.8 µM. In addition, the TGI is > 45 µM with UACC-62 melanoma, > 100 µM with HCT-116 colon, > 92.9 µM in the assay on OVCAR-8 ovarian and > 100 µM with SK-MEL-28 melanoma.

As to `CNC(=O)CN1CCC(Oc2cc3c(Nc4cccc(Cl)c4F)ncnc3cc2OC)CC1`, the GI50 with UO-31 renal was 0.177 µM and 0.427 µM; in the assay with COLO 205 colon it was 13.9 µM and > 4.66 µM; in the assay with 786-0 renal, 5.28 µM and 5.31 µM; in the assay on NCI/ADR-RES ovarian, 11.4 µM and > 6.36 µM; with U251 CNS, 17 µM and > 6.47 µM; with LOX IMVI melanoma, 8.12 µM and > 5.06 µM. The GI50 in the assay on UACC-62 melanoma was 16.3 µM and > 10 µM; with HCT-116 colon it was 14.8 µM and > 5.44 µM; with OVCAR-8 ovarian it was 8.25 µM and > 5.04 µM; with SK-MEL-28 melanoma it was 19.2 µM and > 7.55 µM. Moreover, the TGI in the assay on UO-31 renal was 15.2 µM and > 10 µM; in the assay with COLO 205 colon, 29 µM and > 8.92 µM; with 786-0 renal it was 27.8 µM and > 10 µM; with NCI/ADR-RES ovarian it was 66.4 µM and > 10 µM; in the assay with U251 CNS, 45.9 µM and > 10 µM; in the assay on LOX IMVI melanoma, 20.9 µM and > 10 µM. Moreover, the TGI is 32.6 µM and > 10 µM in the assay with UACC-62 melanoma; 28.5 µM and > 10 µM in the assay with HCT-116 colon; > 77.3 µM in the assay with OVCAR-8 ovarian; 47.3 µM and > 10 µM in the assay with SK-MEL-28 melanoma.

Turning to `COc1ccc(C2CC(=O)c3c(O)c(OC)c(OC)c(OC)c3O2)cc1O` (stereo not given), the GI50 in the assay with UO-31 renal is 2.18 µM; in the assay with COLO 205 colon, 6.63 µM; in the assay on 786-0 renal, 1.64 µM; with NCI/ADR-RES ovarian it was 0.0616 µM; with U251 CNS it was 0.191 µM; in the assay with LOX IMVI melanoma, 0.0701 µM. Besides, the GI50 in the assay with UACC-62 melanoma was 0.504 µM; in the assay on HCT-116 colon, 0.103 µM; in the assay on OVCAR-8 ovarian, 0.175 µM; with SK-MEL-28 melanoma, 14.4 µM. Further, the TGI in the assay with UO-31 renal is > 100 µM; in the assay on COLO 205 colon, 32.5 µM; in the assay on 786-0 renal it was > 100 µM; in the assay with NCI/ADR-RES ovarian, > 100 µM; with U251 CNS, > 100 µM; in the assay on LOX IMVI melanoma, > 100 µM. The TGI is > 73.7 µM with UACC-62 melanoma, > 100 µM with HCT-116 colon, > 57.1 µM in the assay with OVCAR-8 ovarian and > 100 µM with SK-MEL-28 melanoma.

For `CCN1CCN(c2ccc(Nc3ncc4ccc5ncn(C(C)C)c5c4n3)nc2)CC1`, the GI50 with UO-31 renal is 0.0291 µM; in the assay with COLO 205 colon it was 0.0852 µM; with 786-0 renal it was 0.102 µM; with NCI/ADR-RES ovarian, 0.292 µM; in the assay on U251 CNS, 0.108 µM; in the assay with LOX IMVI melanoma, 0.116 µM. The GI50 in the assay with UACC-62 melanoma is 0.199 µM; with HCT-116 colon, 0.0312 µM; in the assay with OVCAR-8 ovarian, 0.311 µM; with SK-MEL-28 melanoma, 0.2 µM. Also, the TGI in the assay on UO-31 renal is 0.378 µM; in the assay with COLO 205 colon it was 0.342 µM; in the assay with 786-0 renal it was 1.69 µM; with NCI/ADR-RES ovarian it was 13.9 µM; in the assay on U251 CNS it was 3.94 µM; in the assay on LOX IMVI melanoma, 0.556 µM. Also, the TGI with UACC-62 melanoma amounted to 0.723 µM; in the assay on HCT-116 colon, 0.55 µM; in the assay on OVCAR-8 ovarian, 16.3 µM; in the assay with SK-MEL-28 melanoma, 1.45 µM.

For the molecule `CC1=CC(=O)c2ccc(C)cc2C1=O`, the TGI in the assay on UO-31 renal is 24.6 µM; in the assay with COLO 205 colon it was 31.1 µM; in the assay on 786-0 renal, 44.3 µM; in the assay with NCI/ADR-RES ovarian it was > 100 µM; in the assay on U251 CNS, 25.7 µM; in the assay on LOX IMVI melanoma it was 17.5 µM. Also, the TGI amounted to 21.9 µM in the assay on UACC-62 melanoma, 15.1 µM in the assay on HCT-116 colon, 26.8 µM in the assay with OVCAR-8 ovarian and 22.7 µM in the assay on SK-MEL-28 melanoma.

For `Cn1c(=O)c2[nH]c(CCCCc3nc4c([nH]3)c(=O)n(C)c(=S)n4C)nc2n(C)c1=S`, the TGI in the assay on UO-31 renal, with COLO 205 colon, in the assay with 786-0 renal, in the assay with NCI/ADR-RES ovarian, in the assay on U251 CNS and with LOX IMVI melanoma was > 100 µM throughout. The TGI in the assay with UACC-62 melanoma, in the assay with HCT-116 colon, in the assay on OVCAR-8 ovarian and with SK-MEL-28 melanoma was > 100 µM throughout.
